Reference: US11932633B2, “KRas G12C inhibitors” (Mirati Therapeutics, Inc., priority 2018, dated 2024)

Legend:
KRas G12C [1] = target: T1, KRas G12C (Homo sapiens, UniProt P01116, G12C); experiment: Cellular inhibition of KRas G12C measured by Phospho-ERK in NCI-11358 cells; format: cell-based; details: NCI-11358 cells (ATCC CRL-5807), 3 hours; read-out: Inhibition (IC50, pERK (Thr202/Tyr204) signal normalized with GAPDH)
T1 construct: NCI-11358 cells (ATCC CRL-5807) express KRas G12C; host or cells: NCI-H358
Experimental: The cellular inhibition of KRAs G12C by exemplary compounds of the present invention was determined by measuring the amount of a downstream marker of KRas activity, phosphorylated ERK (“Phospho-ERK”).
NCI-11358 cells (ATCC CRL-5807) express KRas G12C and were grown in RPMI medium supplemented with 10% fetal bovine serum, penicillin/streptomycin and 10 mM HEPES. Cells were plated in poly-D-Lysine coated 96-well plates at a concentration of 50,000 cells/well and allowed to attach for 8-12 hours. Diluted compounds were then added at a final concentration of 0.5% DMSO. After 3 hours, the medium was removed, 150 μL of 4% formaldehyde was added and the plates were incubated for 20 minutes. The plates were washed with PBS, and permeabilized using 150 μL of ice cold 100% methanol for 10 minutes. Non-specific antibody binding to the plates was blocked using 100 μL Licor Blocking Buffer (Li-Cor Biotechnology, Lincoln NE) for 1 hour at room temperature. Positive control samples and samples lacking cells were parallel processed with test samples as standards.
The amount Phospho-ERK was determined using an antibody specific for the phosphorylated form of ERK and compared to the amount of GAPDH. Primary antibodies used for detection were added as follows: Phospho-ERK (Cell Signaling cs9101) diluted 1:500 and GAPDH (Millipore MAB374) diluted 1:5000 in Licor block+0.05% Tween 20. The plates were incubated for 2 hours at room temperature. The plates were washed with PBS+0.05% Tween 20.
Secondary antibodies used to visualize primary antibodies were added as follows: Anti-rabbit-680 diluted 1:1000 and Anti-mouse-800 diluted 1:1000 in Licor Block+0.05% Tween 20 and incubated for 1 hour at room temperature. The plates were washed with PBS+0.05% Tween 20. A 100 μL aliquot of PBS was added to each well and the plates were read on a LICOR AERIUS plate reader.
The pERK (Thr202/Tyr204) signal was normalized with the GAPDH signal and percent of DMSO control values were calculated. IC50 values were generated using a 4 parameter fit of the dose response curve. Key: “A”: ≤1 μM, “B”>1 μM and N.D.=not determined.

KRas G12C [2] = target: T2, KRas G12C (Homo sapiens, UniProt P01116, C118S/C51S/C80L/G12C); experiment: KRas G12C Modification Assay (LCMS detection of covalent adduct); format: binding; details: 5 μM concentration for 3 hours
T2 construct: GDP-loaded K-Ras (1-169) G12C, C51S, C80L, C118S
Experimental: This Example illustrates that exemplary compounds of the present invention covalently bind to KRas G12C using a LCMS assay to detect a covalent adduct of the exemplary compound and KRAS G12C.
The protein concentration of GDP-loaded K-Ras (1-169) G12C, C51S, C80L, C118S and GTP-loaded K-Ras (1-169) G12C, C51S, C80L, C118S, Q61H was adjusted to 2 μM in K-Ras Assay Buffer (25 mM HEPES, 150 mM NaCl, 5 mM MgCl2, and 10 mM Octyl β-glucopyranoside at pH 7.5). A 10 μL aliquot of each protein solution was transferred to a 384 well microtiter plate. Initial compound stocks were generated at fifty times their desired final assay concentration in DMSO.
Exemplary compounds of formula (I) were diluted 25-fold into K-Ras Assay Buffer to a final of two times their final concentration. A 10 μL aliquot of each diluted compound solution was added to each of the protein solutions in the microtiter plate to initiate reaction. Typical final compound concentrations were 3.0, 5.0 and 25.0 μM. At each time point, the reactions were quenched with 20 μL of a 25 mM acetic acid solution. Usual assay endpoints were 15, 180 and 1440 minutes. Once all reactions were quenched, the plates were heat sealed and the samples were injected into a LC/MS system for data acquisition.
Data collection took place on an Agilent 6520 Q-TOF Accurate Mass Spectrometer. Samples were injected in their liquid phase onto a C-3 reverse phase column to remove assay buffer and prepare the samples for mass spectrometer. The proteins were eluted from the column using an acetonitrile gradient and fed directly into the mass analyzer. Initial raw data analysis took place in Agilent MassHunter software immediately post data acquisition.
Raw data analysis of the intact protein was exclusively a deconvolution of the multiple charge states of each protein in solution using a maximum entropy deconvolution provided in Mass Hunter. To minimize complexity, only the data over limited mass ranges were considered for analysis, with a minimum of one Dalton mass step intervals. The heights of all masses identified during raw data analysis were exported to be further analyzed in Spotfire® data analysis software.
Final data analysis was a multistep process in the Spotfire® data analysis software package. Briefly, each protein mass was calculated as a percent of the total signal of that sample, that percentage was normalized to the percentage of signal of the protein in the absence of reactive compounds. Those normalized signals were reported as normalized percent of control (POC). […] Key: N.D. is not determined.

Row | SMILES | IC50 (KRas G12C [1]) [nM] | POC (normalized percent of control, covalent modification of KRas G12C) (KRas G12C [2])
1 | C=CC(=O)N1CC(CN2C(=O)COc3cc(-c4cc(O)cc5ccccc45)c(C#N)cc32)C1 [Example 32, 4-((1-acryloylazetidin-3-yl)methyl)-7-(3-hydroxynaphthalen-1-yl)-3-oxo-3,4-dihydro-2H-benzo[b][1,4]oxazine-6-carbonitrile] | > 1000 | 81% of control
2 | C=CC(=O)N1CC(F)(CN2C(=O)COc3cc(-c4cc(O)cc5ccccc45)c(Cl)cc32)C1 [Example 13, 4-((1-acryloyl-3-fluoroazetidin-3-yl)methyl)-6-chloro-7-(3-hydroxynaphthalen-1-yl)-2H-benzo[b][1,4]oxazin-3(4H)-one] | ≤ 1000 | 93% of control
